The compound `CC(NCC(O)CP(=O)(O)CC1CCCCC1)c1ccc(Cl)c(Cl)c1` (centres undefined) showed a melting point of 173 to 178 °C.

The compound `Nc1ccc(CN2CCNC(=O)C2=O)cc1` displayed a melting point of 246 to 249 °C.

Consider `COC(=O)C(Cc1ccc(OCCN(C)c2nc3ccccc3o2)cc1)Sc1ccc(C)cc1` (centres undefined), for which the melting point was 88.6 to 90.1 °C.

For `COc1ccc(COC(=O)Nc2cncc(O)c2CCCOc2cccnc2Oc2cccc(Cl)c2)cc1`, the melting point amounted to 150 °C.

Turning to `Cc1nc[nH]c1CSCCN=C(NC#N)NCCN`, the melting point lay in the range of 164 to 167 °C.

`CSC1=CC2=CN(S)NN2C(C)=N1`: the melting point was in the range of 256 to 258 °C.

In turn, `CC(=O)OC[C@H]1O[C@@H](c2nc(C(N)=O)c(N)[nH]2)[C@H](OC(C)=O)[C@@H]1OC(C)=O` displayed a melting point of 128 to 129 °C.

Take `CCN1CCN(Cc2ccc(NC(=O)Nc3ccc(Oc4cc(Cl)ncn4)cc3)cc2)CC1`: the melting point was in the range of 203 to 204 °C.

The compound `COc1cc(CCCOc2c(CC(=O)O)cccc2OC)n(Cc2ccc(Cl)cc2Cl)n1` registered a melting point of 111 to 112 °C.

Consider `Cc1cc(Nc2cncc(Nc3cccc(NC(=O)c4ccccc4)c3)n2)n[nH]1`, for which the melting point was 243 to 244 °C.

Compound `CN(C)c1ccc(C2OC(=O)c3c(Cl)c(Cl)c(Cl)c(Cl)c32)c(N(C)C)c1` (centres undefined) had a melting point of 195 to 197 °C.

Regarding `CC(C)(C)SC1CN(C(N)=O)CC1NS(=O)(=O)c1ccc(Oc2ccccc2)cc1` (centres undefined), the melting point lay within 132 to 133 °C.

Regarding `Cc1cc(C(=O)N[C@@H]2CCc3cccc(N4CCN(C)CC4)c3C2)ccc1N1CCOCC1`, the melting point was in the range of 172 to 175 °C.

In turn, `CC1=Nc2ccccc2S(=O)(=O)N1` gave a melting point of 260 to 261 °C.

Compound `O=C1CC(c2csc(-n3ccnc3)n2)=Nc2ccc(-c3ccc(F)cc3)cc2N1` yielded a melting point of 214 °C.

Turning to `Cc1cc(SCN(O)CSc2cc(C)c(O)c(C(C)(C)C)c2)cc(C(C)(C)C)c1O`, the melting point lay within 115 to 118 °C.

`CC(=O)Nc1c(SC(F)(F)F)c(C#N)nn1-c1c(Cl)cc(C(F)(F)F)cc1Cl`: the melting point lay within 217 to 218 °C.

Turning to `NC(=O)c1nc2cnc3ccccc3c2[nH]1`, the melting point is 326 to 328 °C.

As for `Cc1nc(-c2cncc(F)c2)sc1N(C)C(=S)NC1CC1`, the melting point fell in the range of 117 to 119 °C.

`O=C(Nc1ccccc1C(=O)O)c1nnc(S)o1` yielded a melting point of 236 to 237 °C.

The compound `O=C(c1ccc(F)cc1)N1CCC[C@H](c2noc([C@@H](O)c3ccccc3)n2)C1` showed a melting point of 168 to 172 °C.

Regarding `Cc1nn(C)c(F)c1C(=O)F`, the melting point was 85 to 87 °C.

The compound `O=C(Nc1cc2ncc(CN3CCCC3)cc2cc1F)c1ccc(Br)cc1F` registered a melting point of 149 to 151 °C.

Compound `OC(c1ccc(OCc2ccccc2)cc1)c1ccc(OCc2ccccc2)cc1` displayed a melting point of 113 to 120 °C.

Regarding `O=C(Nc1cccc(Cl)c1)ONC1=Nc2ccc([N+](=O)[O-])cc2C(c2ccccc2Cl)=NC1`, the melting point fell in the range of 130 to 135 °C.

Take `CCCCCCCCNC(=O)N1CCC(c2nc(N)nc3ccccc23)CC1`: the melting point lay in the range of 85 to 87 °C.

Compound `COC(=O)C(CNC(C)=O)C1CCC(c2ccccc2)CC1` (centres undefined) gave a melting point of 75 to 80 °C.

`COc1cc(Nc2nc3cccc(-c4cccc(Cl)c4)c3o2)cc(OC)c1OC` showed a melting point of 199 to 201 °C.

`O=c1ccc(C(F)(F)F)cn1Cc1ccccc1NCCN1CCOCC1` displayed a melting point of 101 to 103 °C.

On to `NS(=O)(=O)c1cc2cc(OCC(=O)O)ccc2s1`, for which the melting point was in the range of 200 to 203 °C.

In the case of `Cc1ccnc(C(O)c2ccc(N)cc2C(F)(F)F)c1` (centres undefined), the melting point is 120 to 123 °C.

As to `CCOC(=O)c1ccc(-c2csc(-c3ccc(C(F)(F)F)cc3)n2)cc1`, the melting point lay in the range of 163 to 164 °C.

`CSc1ccc(-c2nc(SC)c(C#N)c(=O)n2-c2ccc(C)c(C)c2)cc1` came in with a melting point of 234 to 236 °C.

For `Nc1ccc(S(=O)C(F)(F)C(F)F)cc1F` (centres undefined), the melting point lay within 67 to 69 °C.

In turn, `C[C@H](NC(=O)C(CSC(=O)c1ccccc1)SC(=O)c1ccccc1)C(=O)N1CCC[C@H]1C(=O)O` (some centres undefined) displayed a melting point of 185 to 186 °C.

Take `N#CCOc1cccc(COc2ccc(OCc3ccc4ccccc4n3)cc2)c1`: the melting point was in the range of 110 to 114 °C.

For the compound `CNc1nc(Br)cn2c(Br)cnc12`, the melting point was found to be 229 °C.

Compound `CCCOc1ccc(S(=O)(=O)N2CCN(CC)CC2)cc1-c1nc2cc3ncn(Cc4ccccc4)c3cc2c(=O)[nH]1` came in with a melting point of 135 to 137 °C.

`COc1cc(Nc2c(C#N)cnc3cc(OCC4CCN(C)CC4)ccc23)c(Cl)cc1Cl` had a melting point of 191 to 193 °C.

Regarding `Nc1ccc(Oc2cccc(Oc3ccc(N)c(O)c3)c2)cc1O`, the melting point is 171 to 174 °C.

With `Cc1nnc(-c2ccc3occ(-c4cccc(F)c4F)c3c2)o1`, the melting point was 112 to 113 °C.

`CCCNC(=S)NC1=Nc2ccccc2CS1` gave a melting point of 180 to 184 °C.

Consider `CCOc1cccc2c(=O)c3ccccc3sc12`, for which the melting point fell in the range of 112 to 115 °C.

For the compound `CCc1nn(Cc2nnc(N)o2)c(CC)c1Oc1cc(Cl)cc(Cl)c1`, the melting point was 226 to 228 °C.

On to `C=CCCC(O)=C(C#N)C(=O)Nc1ccc(C(F)(F)F)c(C)c1`, for which the melting point came to 133 °C.

The compound `Nc1c(Cl)cc(C(O)CNCCCCOCCSCCc2ccccc2)cc1Cl` (centres undefined) registered a melting point of 74 to 77 °C.

As for `CCCCOC(=O)[C@H]1NC(=O)[C@H]1N` (relative stereo), the melting point was 87 to 89 °C.

Compound `CSc1ccc(CSc2cccc(C(=O)Nc3ccc(Cl)cn3)c2)cc1` gave a melting point of 159 to 161 °C.

The compound `COCCNC(=O)c1nc2cc(NC(=O)c3c(C(=O)N4CCC4)cnn3C)ccn2n1` came in with a melting point of 159 to 161 °C.

For `CC(=O)OCCC1(C)CCc2c(C)c(OCc3ccccc3)c(C)c(C)c2O1` (centres undefined), the melting point lay within 58 to 62 °C.

`O=CN1CCN(Cc2nc3ccccc3[nH]2)CC1` returned a melting point of 194 to 198 °C.

For `O=c1c2ccc(Cl)cc2[nH]c2c(O)nn(Cc3ccoc3)c(=O)c12`, the melting point was greater than 250 °C.

The compound `CCOC(=O)C(NC(=O)c1ccc(OC)cc1)C(C)=O` (centres undefined) yielded a melting point of 67 to 69 °C.

Compound `CCOC(=O)c1[nH]c(=O)[nH]c(=O)c1[N+](=O)[O-]` displayed a melting point of 259 °C.

`CCOC(=O)c1c2ccc(Cl)cc2c(-c2ccccc2)n1CCCC(C)C1OCCO1` (centres undefined): the melting point lay in the range of 100 to 101 °C.

In the case of `O=C(NCCN1CCC(n2c(=O)[nH]c3ccccc32)CC1)c1ccco1`, the melting point came out at 229 °C.

`CCCNC(=O)N(CCC(=O)OC)CC1CC2c3cccc4[nH]cc(c34)CC2N(C)C1` (centres undefined) showed a melting point of 130 to 132 °C.

In the case of `CC(C)c1nc(COCc2ccccc2)n(CC(C)(C)O)c1Sc1cc(Cl)cc(Cl)c1`, the melting point is 181 to 182 °C.

In the case of `CN(C)CCc1[nH]c2ccccc2c1CC(N)=O`, the melting point fell in the range of 114 to 117 °C.

As to `C=CC(=O)NCCOc1ccc2c(c1)nc(N)c1nc(CCC)sc12`, the melting point lay within 200 to 202 °C.

The compound `Cn1c(=O)c(S(C)=O)c(O)c2ccccc21` (centres undefined) yielded a melting point of 197 to 200 °C.

In turn, `CCCCc1nn2c(C)cccc2c1Cc1ccc(Br)cc1` returned a melting point of 54 °C.

As for `O=C(CN1C(=O)C(NC(=O)Nc2ccc(Cl)cc2)N=C(c2ccccc2)c2ccccc21)NCc1ccccc1` (centres undefined), the melting point was 260 to 262 °C.

In turn, `Oc1ccc2c(c1)Nc1ccccc1S2` displayed a melting point of 207 to 208 °C.

Compound `CC(C)CCCC(C)C1CCC2C3CCC4CC(NC(=O)C(COCc5ccccc5)NC(=O)OC(C)(C)C)CCC4(C)C3CCC12C` (centres undefined) had a melting point of 55 to 67 °C.

`Nc1cc(C(=O)c2ccccc2)ccc1Cl` gave a melting point of 91.9 °C.

Turning to `CC(C)(C)C(=O)Nc1ccc(Cl)cc1`, the melting point was 149 to 150 °C.

In the case of `O=C1Nc2ccccc2C1=Cc1ccccc1`, the melting point was in the range of 177 to 179 °C.

Regarding `CCN(CC)c1nn2ccccc2c1C(C)=O`, the melting point fell in the range of 59.5 to 60 °C.

Regarding `CC(CCCC(=O)O)NC(=O)C(C)S` (centres undefined), the melting point lay in the range of 78 to 79 °C.

In the case of `O=C(NCC1CCN(C[C@H]2COc3ccc(Cl)cc3O2)CC1)c1cccnc1`, the melting point lay within 172 to 174 °C.

As to `O=Cc1cnc(Nc2n[nH]c3ccc(-c4ncccc4Cl)cc23)s1`, the melting point lay in the range of 223 to 224 °C.

`ClCc1ccc(OCc2coc(/C=C/c3ccccc3)n2)cc1`: the melting point lay in the range of 116 to 117 °C.

As for `O=C(Nc1ccc(C#CC2(O)CN3CCC2CC3)cc1)C(F)(F)F` (centres undefined), the melting point is 222 to 223 °C.

Take `O=[N+]([O-])c1cncnc1O`: the melting point came to 300 °C.

In turn, `N#CN=C(N)c1cc2c(Oc3ccc(Cl)cc3)cncc2s1` showed a melting point of 265 to 268 °C.

Regarding `O=C1c2ccccc2C(=O)N1CC(=O)N1c2ccccc2N(Cc2cccc3ccccc23)C(=O)[C@H]2CCC[C@H]21` (relative stereo), the melting point was in the range of 266 to 270 °C.

In turn, `CC(C)C(NC(=O)Cn1cc(Cc2ccc(F)cc2)cc(NC(=O)OCc2ccccc2)c1=O)C(=O)C(F)(F)F` (centres undefined) had a melting point of 66 to 72 °C.

`O=C1OC2(CC(c3ccccc3)=NO2)c2ccccc21` (centres undefined) displayed a melting point of 103 to 106 °C.

Compound `Cc1cccc2c1NC(C(Cl)(Cl)Cl)OC2` (centres undefined) registered a melting point of 69 to 70 °C.

Take `COc1cccc(COc2cc3c(cc2-c2cc(C=CC(=O)O)ccc2OC)C(C)(C)CCC3(C)C)c1`: the melting point was 76 to 78 °C.

For the compound `CCCCCCCCCCCCCOc1ccc(CNc2ccc(C(=O)O)cc2)cc1`, the melting point was 110 to 113 °C.

Consider `CCCCOCCOc1ccc(-c2ccc(N3CCC(CC(=O)OCC)C3)c(C=C(C)C(=O)O)c2)cc1` (centres undefined), for which the melting point is 116 °C.

`Nc1cc(C(=O)OCc2ccccc2)ccc1OCc1ccccc1` displayed a melting point of 79 to 81 °C.

The compound `COc1ccnc(CCc2nc3cc(-c4ccc(S(=O)(=O)N5CCN(c6ccc(C)cc6C)CC5)cc4)cnc3[nH]2)c1` had a melting point of 208 to 209 °C.

Consider `CCCCCCCCCCCCc1ccc(N=C(C)c2ccccc2)cc1`, for which the melting point came to 47 °C.

`CS(=O)(=O)n1cnc2cc(Cl)c(Cl)cc21` displayed a melting point of 191 to 193 °C.

With `CCCOc1cccc(CO)c1-c1ccc(OC)cc1O`, the melting point fell in the range of 102 to 103 °C.

In the case of `Cc1oc(-c2ccco2)nc1COc1ccc(CON=C(CCC(=O)O)c2ccccc2)cc1`, the melting point lay within 124 to 125 °C.

These data come from a melting point compilation (Tetko et al.; mined from patent text by program, amines drawn as free bases though some values may be those of a salt).
